Assay results: ChEMBL document CHEMBL3991942, “Low molecular weight MYC-MAX inhibitors” (2011)
The source made the active and inactive calls. The calls are words filed in the database; no cut-off is given here.

Legend:
[1] = biological target: Myc proto-oncogene protein (Homo sapiens) (UniProt P01106); assay: Binding affinity to recombinant human His6 tagged c-Myc bHLH-LZ domain (353 to 439 residues) with GGCD extension at C-terminus expressed in Escherichia coli BL21 DE3 (pLysS) by fluorescence polarization assay
[2] = tested on: HL-60; assay: Effect on absolute levels of Max in human HL60 nuclear extracts at 100 to 200 uM after 30 mins by co-immunoprecipitation assay; conditions: hl-60, 0.5 h
[3] = biological target: T1, c-Myc/c-Max (Homo sapiens) (UniProt P01106+P61244); assay: Inhibition of c-Myc/Max interaction in human HL60 nuclear extracts at 100 to 200 uM after 30 mins by co-immunoprecipitation assay; format: protein assay
[4] = biological target: Protein max (Homo sapiens) (UniProt P61244); assay: Binding affinity to recombinant human full length His6 tagged Max (151 residues) expressed in Escherichia coli M15 (pRep4) at 25 uM by fluorescence polarization assay
[5] = biological target: Myc proto-oncogene protein (Homo sapiens) (UniProt P01106); assay: Binding affinity to recombinant human His6 tagged c-Myc bHLH-LZ domain (353 to 439 residues) with GGCD extension at C-terminus expressed in Escherichia coli BL21 DE3 (pLysS) at 25 uM by fluorescence polarization assay
[6] = tested on: HL-60; assay: Effect on absolute levels of c-Myc in human HL60 nuclear extracts at 100 to 200 uM after 30 mins by co-immunoprecipitation assay; conditions: hl-60, 0.5 h
[7] = biological target: T1, c-Myc/c-Max (Homo sapiens); assay: Inhibition of recombinant human His6 tagged c-Myc bHLH-LZ domain (353 to 439 residues) with GGCD extension at C-terminus/recombinant human full length His6 tagged Max (151 residues) expressed in Escherichia coli assessed as reduction of heterodimer binding to HEX labeled E-box-containing DNA after 90 mins by electrophoretic mobility shift assay
[8] = biological target: Myc proto-oncogene protein (Rattus norvegicus) (UniProt P09416); assay: Inhibition of c-Myc in rat TGR1 cells assessed as cell growth inhibition at 6 to 50 uM after 3 to 4 days by trypan blue exclusion assay; format: cell-based
[9] = tested on: H016.4C; assay: Cytotoxicity against rat H016.4C cells assessed as cell growth inhibition at 6 to 50 uM after 3 to 9 days by trypan blue exclusion assay; format: functional, cell-based
[10] = Cytotoxicity against rat KO-HMG cells assessed as cell growth inhibition at 6 to 50 uM after 3 to 4 days by trypan blue exclusion assay; format: cell-based

| SMILES | K [1] [µM] | Activity [2] | inhibition [3] | Activity [4] | Activity [5] | Activity [6] | inhibition [7] | inhibition [8] | growth inhibition (GI) [9] | Activity [10] |
| --- | --- | --- | --- | --- | --- | --- | --- | --- | --- | --- |
| CCc1ccc(/C=C2\SC(SC)=NC2=O)cc1 | 4.1 | Non-Toxic | Active | inactive | Active | Non-Toxic | Dose-dependent effect |  |  |  |
| O=C1NC(=S)S/C1=C\C1CCCCC1 |  | Non-Toxic | Active |  |  | Non-Toxic | Dose-dependent effect |  |  |  |
| O=C1NC(=S)S/C1=C\c1ccc(O)cc1 |  |  |  | inactive | inactive |  |  |  |  |  |
| CCN(CC)c1ccc(/C=C2\SC(=S)NC2=O)cc1 |  |  |  | inactive | inactive |  |  |  |  |  |
| O=C1NC(=S)S/C1=C\c1ccc(Cl)cc1 | 2.5 | Non-Toxic | Active | inactive | Active | Non-Toxic | Dose-dependent effect | Active | inactive | Non-Toxic |
| C#CCN1C(=O)S/C(=C/c2ccc(CC)cc2)C1=O |  | Non-Toxic | Active |  |  | Non-Toxic | Dose-dependent effect | Active | inactive | Non-Toxic |
| CCc1ccc(/C=C2\SC(=S)NC2=O)cc1 | 2.3 | Non-Toxic | Active | inactive | Active | Non-Toxic | Dose-dependent effect | Active | inactive | Non-Toxic |
| CC(C)c1ccc(/C=C2\SC(=S)NC2=O)cc1 | 1 | Non-Toxic | Active | inactive | Active | Non-Toxic | Dose-dependent effect |  |  |  |
| CCc1ccc(/C=C2\SC(=S)N(CCC(C)=O)C2=O)cc1 | 1.4 | Non-Toxic | Active | inactive | Active | Non-Toxic | Dose-dependent effect | Active | inactive | Non-Toxic |
| CC(C)c1ccc(/C=C2\SC(=S)N(CN3CCCCC3)C2=O)cc1 | 1.8 | Non-Toxic | Active | inactive | Active | Non-Toxic | Dose-dependent effect | Active | inactive | Non-Toxic |
| C=CCN1C(=O)/C(=C\c2ccc(CC)cc2)SC1=S | 3.1 | Non-Toxic | Active | inactive | Active | Non-Toxic | Dose-dependent effect | Active | inactive | Non-Toxic |
| CCc1ccc(/C=C2\SC(=S)N(CN3CCCCC3)C2=O)cc1 | 5.7 | Non-Toxic | Active | inactive | Active | Non-Toxic | Dose-dependent effect |  |  |  |
| O=C1/C(=C/c2ccc(Cl)cc2)SC(=S)N1CN1CCCCC1 | 0.6 | Non-Toxic | Active | inactive | Active | Non-Toxic | Dose-dependent effect | Active | inactive | Non-Toxic |
| O=C1NC(=S)S/C1=C\c1ccc(O)c(O)c1 | 8.6 | Non-Toxic | Active | inactive | Active | Non-Toxic | Dose-dependent effect | Active | inactive | Non-Toxic |
| C/C(=C1/SC(=S)NC1=O)c1ccccc1 |  |  |  | inactive | inactive |  |  |  |  |  |
